According to patent US5008285A, “(6,11-dihydro-11-oxodibenz[b,e]oxepin-yl)pentanoic acids and derivatives thereof” (Hoechst-Roussel Pharmaceuticals, Inc., priority 1989, dated 1991):
Read-outs that look alike come from different tables or passages of the source.

Experiments:
[1] = ulcerogenic activity test (GI); settings: in vivo, po
Excerpt: (The ulcerogenic activity test is hereafter referred to as GI).

[2] = test system: adjuvant-induced polyarthritis syndrome; assay: adjuvant-induced polyarthritis syndrome in rats (inhibition of paw volume); assay type: in vivo, male Charles River-Wistar Lewis rats; settings: 504 h, rat, oral, from day before adjuvant, continued for 21 days
Method: The (6,11-dihydro-11-oxodibenz[b,e]oxepinyl)pentanoic acids and derivatives thereof of the present invention are useful as antiarthritic agents due to their ability to suppress arthritis-type inflammation in mammals. […] M. Perron and F. D. Wood, Arthritis and Rheumatism, 2, 440 (1959).
Groups of 10 male Charles River-Wistar Lewis rats weighing 150 to 175 g were individually housed and maintained on a regular rat chow diet. Water was given ad libitrim. The adjuvant was prepared by suspending 75 mg of Mycobacterium butyricum (Defco Laboratories, Detroit, Mich.) in 10 ml of white paraffin oil with continuous stirring for 2 hrs at room temperature prior to administration. Test compounds are prepared by suspending the drug in water, adding one drop of Tween 80 per 10 ml of suspension, and homogenizing. The adjuvant suspension (0.1 ml) was injected into the footpad of the left hind paw of the rat. Test compound suspensions were administered orally (10 ml/kg) the day before adjuvant suspension injection and the administration was continued for 21 days. One group of ten rats was used for the test drug, standard, adjuvant-injected control and non-injected control. Control animals received vehicle (10 ml/kg). Three doses of test drug and one dose of standard preparation were used. Injected and non-injected paw volumes were determined on the day the adjuvant suspension was given, and on subsequent days thereafter (usually days 5, 10, 18, and " the method of C. A. Winter, et al., Proc. Soc. Exp. Biol. Med., 111, 544 (1962).
The percent inhibition of paw volume (injected and non-injected hind paw) was calculated by the following formula: [formula]
ED50 -values, i.e., the dose at which the drug affects a 50% inhibition of paw volume, were estimated by the method of J. T. Litchfield and F. Wilcoxon, J. Pharm. Exp. Ther., 96, 99 (1948) and statistically evaluated by means of the student "t" test.

[3] = injected hind paw, read-out: ED50 (dose at which the drug affects a 50% inhibition of paw volume), injected paw
[4] = non-injected hind paw, read-out: ED50 (dose at which the drug affects a 50% inhibition of paw volume), non-injected paw

| SMILES | TD50 [1] | ED50 [2, 3] | ED50 [2, 4] | TD50 ([1]; read-out: GI ID50 (ulcerogenic activity)) |
| --- | --- | --- | --- | --- |
| CC(CCC(=O)O)c1ccc2c(c1)C(=O)c1ccccc1CO2 (stereo not drawn) [4-(6,11-Dihydro-11-oxodibenz[b,e]oxepin-2-yl)pentanoic acid] | > 100 mg/kg | 6.4 mg/kg | 3.4 mg/kg |  |
| CCCCC1C(=O)N(c2ccccc2)N(c2ccccc2)C1=O [Phenylbutazone] |  | 12 mg/kg | 6.8 mg/kg |  |
| CC(C(=O)O)c1ccc2c(c1)C(=O)c1ccccc1CO2 (stereo not drawn) [2-(6,11-Dihydro-11-oxodibenz[b,e]-oxepin-2-yl)propionic acid] |  |  |  | 5.5 mg/kg |
